Measurements taken from patent publication US9539252B2, “Piperazine-substituted benzothiophene derivatives as antipsychotic agents” (OTSUKA PHARMACEUTICAL CO., LTD., priority 2011, dated 2017).

Assay: Solubility in oil (sesame oil, benzyl benzoate), visual observation
Details: oil or lipid, thermodynamic from solid

Question: Which results are given for `CCCCCCCCCCOC(=O)OCN1C(=O)CCc2ccc(OCCCCN3CCN(c4cccc5sccc45)CC3)cc21` [Example 142, carbonic acid 7-[4-(4-benzo[b]thiophen-4-ylpiperazin-1-yl)butoxy]-2-oxo-3,4-dihydro-2H-quinolin-1-ylmethyl ester decyl ester]?
Answer: solubility (benzyl benzoate): > 100 mg/mL; solubility (sesame oil): > 100 mg/mL

Question: With `CCCCCCCCCCCCCCCNC(=O)OCN1C(=O)CCc2ccc(OCCCCN3CCN(c4cccc5sccc45)CC3)cc21` [Example 76, N-pentadecylcarbamic acid 7-[4-(4-benzo[b]thiophen-4-ylpiperazin-1-yl)butoxy]-2-oxo-3,4-dihydro-2H-quinolin-1-ylmethyl ester] as the compound, how does the solubility (benzyl benzoate) read?
Answer: > 100 mg/mL

Question: And the solubility (sesame oil)?
Answer: > 100 mg/mL

Question: With `O=C(NCCC(F)(F)F)OCn1c(=O)ccc2ccc(OCCCCN3CCN(c4cccc5sccc45)CC3)cc21` [Example 139, N-(3,3,3-trifluoropropyl)carbamic acid 7-[4-(4-benzo[b]thiophen-4-ylpiperazin-1-yl)butoxy]-2-oxo-2H-quinolin-1-ylmethyl ester] as the compound, how does the solubility (benzyl benzoate) read?
Answer: > 100 mg/mL

Question: For `O=C(OCN1C(=O)CCc2ccc(OCCCCN3CCN(c4cccc5sccc45)CC3)cc21)N1CCOCC1` [Example 86, morpholine-4-carboxylic acid 7-[4-(4-benzo[b]thiophen-4-ylpiperazin-1-yl)butoxy]-2-oxo-3,4-dihydro-2H-quinolin-1-ylmethyl ester], which solubility (benzyl benzoate) is on record?
Answer: > 100 mg/mL

Question: For `CCCCCCCCCCCCCCCCCCN(C)C(=O)OCn1c(=O)ccc2ccc(OCCCCN3CCN(c4cccc5sccc45)CC3)cc21` [Example 44, N-methyl-N-octadecylcarbamic acid 7-[4-(4-benzo[b]thiophen-4-ylpiperazin-1-yl)butoxy]-2-oxo-2H-quinolin-1-ylmethyl ester], which solubility (benzyl benzoate) is on record?
Answer: > 100 mg/mL

Question: And the solubility (sesame oil)?
Answer: > 100 mg/mL

Question: With `CCCCCCCCOC(=O)OCn1c(=O)ccc2ccc(OCCCCN3CCN(c4cccc5sccc45)CC3)cc21` [Example 384, (7-(4-(4-(benzo[b]thiophen-4-yl)piperazin-1-yl)butoxy)-2-oxoquinolin-1(2H)-yl)methyl octyl carbonate] as the compound, how does the solubility (benzyl benzoate) read?
Answer: > 100 mg/mL

Question: What about the solubility (sesame oil) of the same compound?
Answer: > 100 mg/mL

Question: For `O=C(OCn1c(=O)ccc2ccc(OCCCCN3CCN(c4cccc5sccc45)CC3)cc21)N1CCSCC1` [Example 153, thiomorpholine-4-carboxylic acid 7-[4-(4-benzo[b]thiophen-4-ylpiperazin-1-yl)butoxy]-2-oxo-2H-quinolin-1-ylmethyl ester], which solubility (benzyl benzoate) is on record?
Answer: > 100 mg/mL

Question: Which solubility (benzyl benzoate) does the source give for `O=C(CCC(F)(F)F)OCN1C(=O)CCc2ccc(OCCCCN3CCN(c4cccc5sccc45)CC3)cc21` [Example 124, 4,4,4-trifluorobutyric acid 7-[4-(4-benzo[b]thiophen-4-ylpiperazin-1-yl)butoxy]-2-oxo-3,4-dihydro-2H-quinolin-1-ylmethyl ester] here?
Answer: > 100 mg/mL

Question: With `CCCCCCCCOC(=O)OCN1C(=O)CCc2ccc(OCCCCN3CCN(c4cccc5sccc45)CC3)cc21` [Example 149, carbonic acid 7-[4-(4-benzo[b]thiophen-4-ylpiperazin-1-yl)butoxy]-2-oxo-3,4-dihydro-2H-quinolin-1-ylmethyl ester octyl ester] as the compound, how does the solubility (benzyl benzoate) read?
Answer: > 100 mg/mL

Question: And the solubility (sesame oil)?
Answer: > 100 mg/mL

Question: With `O=C(OCN1C(=O)CCc2ccc(OCCCCN3CCN(c4cccc5sccc45)CC3)cc21)c1cccnc1` [Example 132, nicotinic acid 7-[4-(4-benzo[b]thiophen-4-ylpiperazin-1-yl)butoxy]-2-oxo-3,4-dihydro-2H-quinolin-1-ylmethyl ester] as the compound, how does the solubility (benzyl benzoate) read?
Answer: > 100 mg/mL

Question: For `O=C(OCOc1ccc2ccc(OCCCCN3CCN(c4cccc5sccc45)CC3)cc2n1)OC1CCCCC1` [Example 372, 7-[4-(4-benzo[b]thiophen-4-yl-piperazin-1-yl)-butoxy]-quinolin-2-yloxymethyl cyclohexyl carbonate], which solubility (benzyl benzoate) is on record?
Answer: > 100 mg/mL

Question: Which solubility (benzyl benzoate) does the source give for `O=C(NOCc1ccccc1)OCn1c(=O)ccc2ccc(OCCCCN3CCN(c4cccc5sccc45)CC3)cc21` [Example 69, 7-[4-(4-benzo[b]thiophen-4-ylpiperazin-1-yl)butoxy]-2-oxo-2H-quinolin-1-ylmethyl benzyloxycarbamate] here?
Answer: > 100 mg/mL

Question: Which solubility (benzyl benzoate) does the source give for `CN(Cc1ccccn1)C(=O)OCn1c(=O)ccc2ccc(OCCCCN3CCN(c4cccc5sccc45)CC3)cc21` [Example 152, N-methyl-N-pyridin-2-ylmethylcarbamic acid 7-[4-(4-benzo[b]thiophen-4-ylpiperazin-1-yl)butoxy]-2-oxo-2H-quinolin-1-ylmethyl ester] here?
Answer: > 100 mg/mL

Question: For `CCCCC(C)C(=O)OCn1c(=O)ccc2ccc(OCCCCN3CCN(c4cccc5sccc45)CC3)cc21` (stereo not drawn) [Example 88, 2-methylhexanoic acid 7-[4-(4-benzo[b]thiophen-4-ylpiperazin-1-yl)butoxy]-2-oxo-2H-quinolin-1-ylmethyl ester], which solubility (benzyl benzoate) is on record?
Answer: > 100 mg/mL

Question: Which solubility (benzyl benzoate) does the source give for `CCCCCC(CCCCC)C(=O)OCN1C(=O)CCc2ccc(OCCCCN3CCN(c4cccc5sccc45)CC3)cc21` [Example 40, 2-pentylheptanoic acid 7-[4-(4-benzo[b]thiophen-4-ylpiperazin-1-yl)butoxy]-2-oxo-3,4-dihydro-2H-quinolin-1-ylmethyl ester] here?
Answer: > 100 mg/mL

Question: With `CN(Cc1ccco1)C(=O)OCn1c(=O)ccc2ccc(OCCCCN3CCN(c4cccc5sccc45)CC3)cc21` [Example 125, N-furan-2-ylmethyl-N-methylcarbamic acid 7-[4-(4-benzo[b]thiophen-4-ylpiperazin-1-yl)butoxy]-2-oxo-2H-quinolin-1-ylmethyl ester] as the compound, how does the solubility (benzyl benzoate) read?
Answer: > 100 mg/mL

Question: For `CCCCCCCCCOC(=O)OCn1c(=O)ccc2ccc(OCCCCN3CCN(c4cccc5sccc45)CC3)cc21` [Example 177, carbonic acid 7-[4-(4-benzo[b]thiophen-4-ylpiperazin-1-yl)butoxy]-2-oxo-2H-quinolin-1-ylmethyl ester nonyl ester], which solubility (benzyl benzoate) is on record?
Answer: > 100 mg/mL

Question: And the solubility (sesame oil)?
Answer: > 100 mg/mL

Question: For `O=C(OCn1c(=O)ccc2ccc(OCCCCN3CCN(c4cccc5sccc45)CC3)cc21)C1CCOCC1` [Example 130, tetrahydropyran-4-carboxylic acid 7-[4-(4-benzo[b]thiophen-4-ylpiperazin-1-yl)butoxy]-2-oxo-2H-quinolin-1-ylmethyl ester], which solubility (benzyl benzoate) is on record?
Answer: > 100 mg/mL

Question: With `O=C(OCN1C(=O)CCc2ccc(OCCCCN3CCN(c4cccc5sccc45)CC3)cc21)C1CCCCC1` [Example 14, cyclohexanecarboxylic acid 7-[4-(4-benzo[b]thiophen-4-ylpiperazin-1-yl)butoxy]-2-oxo-3,4-dihydro-2H-quinolin-1-ylmethyl ester] as the compound, how does the solubility (benzyl benzoate) read?
Answer: > 100 mg/mL

Question: Which solubility (benzyl benzoate) does the source give for `CCCCCC(C)C(=O)OCN1C(=O)CCc2ccc(OCCCCN3CCN(c4cccc5sccc45)CC3)cc21` (stereo not drawn) [Example 92, 2-methylheptanoic acid 7-[4-(4-benzo[b]thiophen-4-ylpiperazin-1-yl)butoxy]-2-oxo-3,4-dihydro-2H-quinolin-1-ylmethyl ester] here?
Answer: > 100 mg/mL

Question: With `CCCCCCCCCCNC(=O)OCN1C(=O)CCc2ccc(OCCCCN3CCN(c4cccc5sccc45)CC3)cc21` [Example 17, N-decylcarbamic acid 7-[4-(4-benzo[b]thiophen-4-ylpiperazin-1-yl)butoxy]-2-oxo-3,4-dihydro-2H-quinolin-1-ylmethyl ester] as the compound, how does the solubility (benzyl benzoate) read?
Answer: > 100 mg/mL

Question: And the solubility (sesame oil)?
Answer: > 100 mg/mL

Question: Which results are given for `CCCCCCCCCCCC(=O)OCN1C(=O)CC(C)(C)c2ccc(OCCCCN3CCN(c4cccc5sccc45)CC3)cc21` [Example 154, dodecanoic acid 7-[4-(4-benzo[b]thiophen-4-ylpiperazin-1-yl)butoxy]-4,4-dimethyl-2-oxo-3,4-dihydro-2H-quinolin-1-ylmethyl ester]?
Answer: solubility (benzyl benzoate): > 100 mg/mL; solubility (sesame oil): > 100 mg/mL

Question: Which solubility (benzyl benzoate) does the source give for `CC(C)CCC(=O)OCN1C(=O)CCc2ccc(OCCCCN3CCN(c4cccc5sccc45)CC3)cc21` [Example 105, 4-methylpentanoic acid 7-[4-(4-benzo[b]thiophen-4-ylpiperazin-1-yl)butoxy]-2-oxo-3,4-dihydro-2H-quinolin-1-ylmethyl ester] here?
Answer: > 100 mg/mL

Question: With `CCCCNC(=O)OCn1c(=O)ccc2ccc(OCCCCN3CCN(c4cccc5sccc45)CC3)cc21` [Example 35, N-butylcarbamic acid 7-[4-(4-benzo[b]thiophen-4-ylpiperazin-1-yl)butoxy]-2-oxo-2H-quinolin-1-ylmethyl ester] as the compound, how does the solubility (benzyl benzoate) read?
Answer: > 100 mg/mL

Question: For `CCCCCCOC(=O)Oc1ccc2ccc(OCCCCN3CCN(c4cccc5sccc45)CC3)cc2n1` [Example 381, 7-[4-(4-benzo[b]thiophen-4-yl-piperazin-1-yl)-butoxy]-quinolin-2-yl hexyl carbonate], which solubility (benzyl benzoate) is on record?
Answer: > 100 mg/mL

Question: And the solubility (sesame oil)?
Answer: > 100 mg/mL

Question: Which solubility (benzyl benzoate) does the source give for `COC(=O)OCn1c(=O)ccc2ccc(OCCCCN3CCN(c4cccc5sccc45)CC3)cc21` [Example 163, carbonic acid 7-[4-(4-benzo[b]thiophen-4-ylpiperazin-1-yl)butoxy]-2-oxo-2H-quinolin-1-ylmethyl ester methyl ester] here?
Answer: > 100 mg/mL

Question: Which solubility (benzyl benzoate) does the source give for `O=C(NCCC(F)(F)F)OCN1C(=O)CCc2ccc(OCCCCN3CCN(c4cccc5sccc45)CC3)cc21` [Example 93, N-(3,3,3-trifluoropropyl)carbamic acid 7-[4-(4-benzo[b]thiophen-4-ylpiperazin-1-yl)butoxy]-2-oxo-3,4-dihydro-2H-quinolin-1-ylmethyl ester] here?
Answer: > 100 mg/mL

Question: For `CCCCCCCC(=O)OCN1C(=O)CCc2ccc(OCCCCN3CCN(c4cccc5sccc45)CC3)cc21` [Example 24, octanoic acid 7-[4-(4-benzo[b]thiophen-4-ylpiperazin-1-yl)butoxy]-2-oxo-3,4-dihydro-2H-quinolin-1-ylmethyl ester], which solubility (benzyl benzoate) is on record?
Answer: > 100 mg/mL

Question: With `CCCCCCCCCCCCCCCC(=O)OCn1c(=O)ccc2ccc(OCCCCN3CCN(c4cccc5sccc45)CC3)cc21` [Example 42, hexadecanoic acid 7-[4-(4-benzo[b]thiophen-4-ylpiperazin-1-yl)butoxy]-2-oxo-2H-quinolin-1-ylmethyl ester] as the compound, how does the solubility (benzyl benzoate) read?
Answer: > 100 mg/mL

Question: For `CC(C)(C)OC(=O)CC(=O)OCn1c(=O)ccc2ccc(OCCCCN3CCN(c4cccc5sccc45)CC3)cc21` [Example 148, malonic acid 7-[4-(4-benzo[b]thiophen-4-ylpiperazin-1-yl)butoxy]-2-oxo-2H-quinolin-1-ylmethyl ester tert-butyl ester], which solubility (benzyl benzoate) is on record?
Answer: > 100 mg/mL
